Results on 35 compounds are retold here after patent publication US7045532B2 (Millennium Pharmaceuticals, Inc., priority 1999, dated 2006).

The target in this test is T1, ACE-2 (Homo sapiens, UniProt Q9BYF1).
T1 construct: a stop codon inserted after the serine immediately preceding the transmembrane domain; made in house; host or cells: CHO K1 cells (transient transfection, purified from conditioned medium)
Put plainly: ACE-2 Competitive Substrate Assay (ACS Assay). The test is classed as biochemical.

Where [1] appears, read: Ki class per key, compounds tested in 5% DMSO, 12 compound concentrations, 25° C., Ki=Kiapp/(1+[S]/Km), read-out: Human ACE-2 Activity.
[2] abbreviates: Table 3, very good ACE-2 inhibiting compounds, species not given, read-out: ACE-2 Activity, Ki.

SMILES strings stand for the structures. Read-outs that look alike come from different tables or passages of the source.

T1 sequence (Q9BYF1 18-740 limits assumed): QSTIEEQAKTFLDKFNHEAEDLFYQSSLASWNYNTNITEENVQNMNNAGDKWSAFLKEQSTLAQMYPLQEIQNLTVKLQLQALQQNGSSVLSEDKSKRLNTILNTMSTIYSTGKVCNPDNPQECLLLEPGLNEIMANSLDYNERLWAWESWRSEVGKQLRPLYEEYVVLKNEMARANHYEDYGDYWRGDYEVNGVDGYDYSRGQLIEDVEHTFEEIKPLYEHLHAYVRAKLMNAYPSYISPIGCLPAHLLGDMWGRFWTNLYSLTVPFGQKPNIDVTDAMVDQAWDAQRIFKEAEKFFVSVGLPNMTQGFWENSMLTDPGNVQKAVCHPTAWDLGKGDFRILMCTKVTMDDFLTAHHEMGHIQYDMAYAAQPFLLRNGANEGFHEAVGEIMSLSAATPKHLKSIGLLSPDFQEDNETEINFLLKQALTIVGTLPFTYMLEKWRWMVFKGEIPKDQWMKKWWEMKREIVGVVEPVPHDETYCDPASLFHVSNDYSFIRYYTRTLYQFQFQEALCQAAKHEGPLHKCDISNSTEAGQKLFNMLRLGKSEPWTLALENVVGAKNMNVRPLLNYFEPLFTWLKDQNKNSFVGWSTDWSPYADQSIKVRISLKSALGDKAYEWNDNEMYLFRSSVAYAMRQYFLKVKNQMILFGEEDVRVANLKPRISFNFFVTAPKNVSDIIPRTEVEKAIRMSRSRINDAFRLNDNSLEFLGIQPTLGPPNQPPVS

Consider `CC(C)C[C@H](N[C@@H](Cc1ccc(-n2cccc2)cc1)C(=O)O)C(=O)O` [PO, 2-[1-Carboxy-2-(4-pyrrol-1-yl-phenyl)-ethylamino]-4-methyl-pentanoic acid], for which the Ki under setting [1] is above 0.5 µM and the Ki under setting [2] was below 0.05 µM.

For the compound `CC(C)C[C@H](N[C@@H](Cn1ccn(CCc2ccccc2F)c1=O)C(=O)O)C(=O)O` [PP, 2-(1-Carboxy-2-{3-[2-(2-fluoro-phenyl)-ethyl]-2-oxo2,3-dihydro-imidazol-1-yl}-ethylamino)-4-methyl-pentanoic acid], the Ki under setting [1] is above 0.5 µM.

Regarding `CC(C)C[C@H](N[C@@H](CC#Cc1cc(Cl)cc(Cl)c1)C(=O)O)C(=O)O` [PR, 2-(1-Carboxy-3-methyl-butylamino)-5-(3,5-dichloro-phenyl)-pent-4-ynoic acid], under setting [1], the Ki was above 0.5 µM.

For the compound `CC(C)C[C@H](N[C@@H](Cc1ccc(Oc2cc(F)cc(F)c2)cc1)C(=O)O)C(=O)O` [PS, 2-[1-Carboxy-2-[4-(3,5-difluoro-phenoxy)-phenyl]-ethylamino]-4-methyl-pentanoic acid], the Ki under setting [1] was above 0.5 µM.

For `CC(C)C[C@H](N[C@@H](Cc1ccccc1-c1cc(Cl)cc(Cl)c1)C(=O)O)C(=O)O` [PT, S,S-2-[1-Carboxy-2-(3′,5′dichloro-biphenyl-2-yl)-ethylamino]-4-methyl-pentanoic acid], the Ki under setting [1] lay in the range of 0.1 to 0.5 µM.

As for `CC(C)C[C@H](N[C@@H](Cc1ccc(C(=O)OC(C)(C)C)cc1)C(=O)O)C(=O)O` [PU, (S,S) 4-[2-Carboxy-2-(1-carboxy-3-methyl-butylamino)-ethyl]-benzoic acid tert-butyl ester], the Ki under setting [1] was below 0.1 µM.

`CC(C)C[C@H](N[C@@H](CN1C(=O)CN(Cc2cc(F)cc(F)c2)C1=O)C(=O)O)C(=O)O` [PW, 2-[1-Carboxy-2-[3-(3,5-difluoro-benzyl)-2,5-dioxo-imidazolidin-1-yl]-ethylamino]-4-methyl-pentanoic acid]: the Ki under setting [1] was below 0.1 µM.

As for `CC(C)C[C@H](N[C@@H](CN1C(=O)CN(Cc2cc(Cl)cc(Cl)c2)C1=O)C(=O)O)C(=O)O` [PX, 2-[1-Carboxy-2-[3-(3,5-dichloro-benzyl)-2,5-dioxo-imidazolidin-1-yl]-ethylamino]-4-methyl-pentanoic acid], under setting [1], the Ki is below 0.1 µM.

`CC(C)C[C@H](N[C@@H](CN1C(=O)CN(Cc2ccc(C(F)(F)F)cc2C(F)(F)F)C1=O)C(=O)O)C(=O)O` [PY, 2-[2-[3-(2,4-Bis-trifluoromethyl-benzyl)-2,5-dioxo-imidazolidin-1-yl]-1-carboxy-ethylamino]-4-methyl-pentanoic acid]: the Ki under setting [1] was above 0.5 µM.

Take `Cc1ccc(-c2ccc(C[C@H](N[C@@H](CC(C)C)C(=O)O)C(=O)O)cc2)nc1` [PZ, (S,S)-2-{1-Carboxy-2-[4-(5-methyl-pyridin-2-yl)-phenyl]-ethylamino}-4-methyl-pentanoic acid]: the Ki by setting is: under setting [1], below 0.1 µM; under setting [2], below 0.05 µM.

On to `Cc1ccnc(-c2ccc(C[C@H](N[C@@H](CC(C)C)C(=O)O)C(=O)O)cc2)c1` [QA, (S,S)-2-{1-Carboxy-2-[4-(4-methyl-pyridin-2-yl)-phenyl]-ethylamino}-4-methyl-pentanoic acid], for which the Ki is below 0.1 µM under setting [1] and 0.05 to 0.1 µM under setting [2].

Regarding `CCOc1ccnc(-c2ccc(C[C@H](N[C@@H](CC(C)C)C(=O)O)C(=O)O)cc2)c1Cl` [QB, (S,S)-2-{1-Carboxy-2-[4-(3-chloro-4-ethoxy-pyridin-2-yl)-phenyl]-ethylamino}-4-methyl pentanoic acid], the Ki reads like this: under setting [1], below 0.1 µM; under setting [2], 0.05 to 0.1 µM.

Turning to `CC(C)C[C@H](N[C@@H](Cc1ccc(-c2cnc3ccccc3c2)cc1)C(=O)O)C(=O)O` [QC, (S,S)-2-[1-Carboxy-2-(4-quinolin-3-yl-phenyl)-ethylamino]-4-methyl-pentanoic acid], the Ki was below 0.1 µM under setting [1] and below 0.05 µM under setting [2].

In the case of `CC(C)C[C@H](N[C@@H](Cc1ccc(C(=O)NCc2cc(F)cc(F)c2)cc1)C(=O)O)C(=O)O` [QD, 2-[1-Carboxy-2-[4-(3,5-difluoro-benzylcarbamoyl)phenyl]-ethylamino]-4-methyl-pentanoic acid], the Ki under setting [1] was above 0.5 µM.

Consider `CC(C)C[C@H](N[C@@H](Cc1ccc(C(=O)Nc2cc(Cl)cc(Cl)c2)cc1)C(=O)O)C(=O)O` [QE, 2-[1-Carboxy-2-[4-(3,5-dichloro-phenylcarbamoyl)-phenyl]ethylamino]-4-methyl-pentanoic acid], for which the Ki runs as follows: under setting [1], below 0.1 µM; under setting [2], below 0.05 µM.

Consider `CC(C)C[C@H](N[C@@H](Cc1ccc(C(=O)Nc2ccccc2)cc1)C(=O)O)C(=O)O` [QF, 2-[1-Carboxy-2-(4-phenylcarbamoyl-phenyl)-ethylamino]-4-methyl-pentanoic acid], for which, under setting [1], the Ki was 0.1 to 0.5 µM.

Turning to `CC(C)C[C@H](N[C@@H](Cc1ccc(C(=O)NCc2ccccc2)cc1)C(=O)O)C(=O)O` [QG, 2-[2-(4-Benzylcarbamoyl-phenyl)-1-carboxy-ethylamino]-4-methyl-pentanoic acid], the Ki under setting [1] was above 0.5 µM.

In the case of `CC(C)C[C@H](N[C@@H](Cc1ccc(C(=O)NC2CCCCC2)cc1)C(=O)O)C(=O)O` [QH, 2-[1-Carboxy-2-(4-cyclohexylcarbamoyl-phenyl)-ethylamino]-4-methyl-pentanoic acid], the Ki under setting [1] is above 0.5 µM.

Turning to `CC(C)C[C@H](N[C@@H](Cc1ccccc1C#N)C(=O)O)C(=O)O` [QI, 2-[1-Carboxy-2-(2-cyano-phenyl)-ethylamino]-4-methyl-pentanoic acid], under setting [1], the Ki is 0.1 to 0.5 µM.

On to `CC(C)C[C@H](N[C@@H](Cc1ccc(Oc2ccccc2)cc1)C(=O)O)C(=O)O` [QJ, 2-[1-Carboxy-2-(4-phenoxy-phenyl)-ethylamino]-4-methyl-pentanoic acid], for which, under setting [1], the Ki was in the range of 0.1 to 0.5 µM.

As for `CC(C)C[C@H](N[C@@H](Cc1ccc(OCc2csc3ccc(Cl)cc23)cc1)C(=O)O)C(=O)O` [QK, 2-[1-Carboxy-2-[4-(5-chloro-benzo[b]thiophen-3-ylmethoxy)-phenyl]-ethylamino]-4-methyl-pentanoic acid], the Ki runs as follows: under setting [1], below 0.1 µM; under setting [2], below 0.05 µM.

Turning to `CC(C)C[C@H](N[C@@H](Cc1cc(-c2ccc(Cl)c(Cl)c2)on1)C(=O)O)C(=O)O` [QL, 2-[1-Carboxy-2-[5-(3,4-dichloro-phenyl)-isoxazol-3-yl]-ethylamino)-4-methylpentanoic acid], the Ki is below 0.1 µM under setting [1] and 0.05 to 0.1 µM under setting [2].

For `CC(C)C[C@H](N[C@@H](Cc1ccc(Oc2cc(Cl)cc(Cl)c2)cc1)C(=O)O)C(=O)O` [QM], under setting [1], the Ki fell in the range of 0.1 to 0.5 µM.

`CC(C)C[C@H](N[C@@H](Cc1ccccc1Oc1cc(Cl)cc(Cl)c1)C(=O)O)C(=O)O` [QN]: the Ki under setting [1] was below 0.1 µM and the Ki under setting [2] is below 0.05 µM.

Turning to `CC(C)C[C@H](N[C@@H](Cc1ccccc1OCc1cccc(Cl)c1)C(=O)O)C(=O)O` [QO, 2-[1-Carboxy-2-[2-(3-chloro-benzyloxy)-phenyl]-ethylamino]-4-methyl-pentanoic acid], the Ki under setting [1] is above 0.5 µM.

`CC(C)C[C@H](N[C@@H](Cc1ccc(Oc2ccc(F)cc2)cc1)C(=O)O)C(=O)O` [QP, 2-[1-Carboxy-2-[4-(4-fluoro-phenoxy)-phenyl]-ethylamino]-4-methyl-pentanoic acid]: the Ki under setting [1] was below 0.1 µM and the Ki under setting [2] is 0.05 to 0.1 µM.

On to `Cc1ccc(-n2ccc(C[C@H](N[C@@H](CC(C)C)C(=O)O)C(=O)O)n2)cc1` [QQ, 2-[1-Carboxy-2-(1-p-tolyl-1H-pyrazol-3-yl)-ethylamino]-4-methyl-pentanoic acid], for which the Ki was below 0.1 µM under setting [1] and 0.05 to 0.1 µM under setting [2].

In the case of `CC(C)C[C@H](N[C@@H](Cc1ccc(NC(=O)C2CCCC2)cc1)C(=O)O)C(=O)O` [QR, 2-[1-Carboxy-2-[4-(cyclopentanecarbonyl-amino)-phenyl]-ethylamino]-4-methyl-pentanoic acid], the Ki under setting [1] was in the range of 0.1 to 0.5 µM.

Consider `CC(C)C[C@H](N[C@@H](Cc1ccc(NC(=O)C(C)(C)C)cc1)C(=O)O)C(=O)O` [QS, 2-{1-Carboxy-2-[4-(2,2-dimethyl-propionylamino)-phenyl]-ethylamino}-4-methyl-pentanoic acid], for which, under setting [1], the Ki fell in the range of 0.1 to 0.5 µM.

As for `CC(C)C[C@H](N[C@@H](Cc1ccccc1OCc1csc2ccc(Cl)cc12)C(=O)O)C(=O)O` [QT, 2-{1-Carboxy-2-[2-(5-chloro-benzo[b]thiophen-3-ylmethoxy)-phenyl]-ethylamino}-4-methyl-pentanoic acid], the Ki under setting [1] was above 0.5 µM.

Consider `CC(C)C[C@H](N[C@@H](Cc1cc(-c2ccc(Cl)cc2)on1)C(=O)O)C(=O)O` [QU, 2-(1-Carboxy-2-[5-(4-chloro-phenyl)-isoxazol-3-yl]-ethylamino]-4-methyl-pentanoic acid], for which the Ki was below 0.1 µM under setting [1] and below 0.05 µM under setting [2].

With `CC(C)C[C@H](N[C@@H](Cc1cc(-c2ccccc2Cl)on1)C(=O)O)C(=O)O` [QV, 2-[1-Carboxy-2-[5-(2-chloro-phenyl)-isoxazol-3-yl]-ethylamino]-4-methyl-pentanoic acid], under setting [1], the Ki is below 0.1 µM.

With `CC(C)C[C@H](N[C@@H](Cc1ccc(OCC2COc3ccc(F)cc32)cc1)C(=O)O)C(=O)O` (stereo partly shown) [QW, 2-[1-Carboxy-2-[4-(5-fluoro-2,3-dihydro-benzofuran-3-ylmethoxy)-phenyl]-ethylamino]-4-methyl-pentanoic acid], the Ki was below 0.1 µM under setting [1] and below 0.05 µM under setting [2].

On to `CC(C)C[C@H](N[C@@H](Cc1ccc(OCc2csc3ccccc23)cc1)C(=O)O)C(=O)O` [QX, 2-{2-[4-(Benzo[b]thiophen3-ylmethoxy)-phenyl]-1-carboxy-ethylamino]-4-methyl-pentanoic acid], for which, under setting [1], the Ki is below 0.1 µM.

Regarding `CC(C)C[C@H](N[C@@H](Cc1ccc(C(=O)O)n1Cc1cc(Cl)cc(Cl)c1)C(=O)O)C(=O)O` [QY, 5-[2-Carboxy-2-(1-carboxy-3-methyl-butylamino)-ethyl]-1-(3,5-dichloro-benzyl)-1H-pyrrole-2-carboxylic acid], the Ki was below 0.1 µM under setting [1] and below 0.05 µM under setting [2].
